Test results published in US10072006B2 (MUTABILIS, priority 2015, dated 2018).
≈ marks a conversion by molar mass, not a printed value.

What was measured:
[1] = target: T1, SHV-1 (Klebsiella pneumoniae, UniProt P0AD64); assay: β-lactamase inhibitory activity, determination of IC50 (nitrocefin hydrolysis); format: biochemical
T1 construct: made in house; host or cells: E. coli

[2] = target: T2, CTX-M-15 (Escherichia coli, UniProt Q9EXV5); assay: as above; format: biochemical
T2 construct: made in house; host or cells: E. coli
T2 sequence (Q9EXV5 entry or part of it): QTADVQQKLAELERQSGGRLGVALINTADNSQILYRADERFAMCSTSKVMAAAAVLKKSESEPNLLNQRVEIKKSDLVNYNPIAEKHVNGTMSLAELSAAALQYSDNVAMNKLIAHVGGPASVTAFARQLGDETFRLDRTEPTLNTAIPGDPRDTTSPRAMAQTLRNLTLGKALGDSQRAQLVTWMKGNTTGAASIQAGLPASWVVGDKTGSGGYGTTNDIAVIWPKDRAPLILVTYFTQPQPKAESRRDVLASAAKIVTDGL

[3] = target: T3, KPC-2 (Klebsiella pneumoniae, UniProt Q9F663); assay: as above; format: biochemical
T3 construct: made in house; host or cells: E. coli
T3 sequence (Q9F663 25-293 limits assumed): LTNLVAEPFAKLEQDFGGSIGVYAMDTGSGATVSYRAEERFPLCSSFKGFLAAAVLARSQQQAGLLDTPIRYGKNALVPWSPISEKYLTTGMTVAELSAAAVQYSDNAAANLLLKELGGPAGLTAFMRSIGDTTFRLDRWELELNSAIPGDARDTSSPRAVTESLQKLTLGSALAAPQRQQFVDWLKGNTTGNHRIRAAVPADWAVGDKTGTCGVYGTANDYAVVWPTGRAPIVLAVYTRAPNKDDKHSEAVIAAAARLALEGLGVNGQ

[4] = target: T4, OXA-1 (Escherichia coli, UniProt P13661); assay: as above; format: biochemical
T4 construct: made in house; host or cells: E. coli
T4 sequence (P13661 26-276): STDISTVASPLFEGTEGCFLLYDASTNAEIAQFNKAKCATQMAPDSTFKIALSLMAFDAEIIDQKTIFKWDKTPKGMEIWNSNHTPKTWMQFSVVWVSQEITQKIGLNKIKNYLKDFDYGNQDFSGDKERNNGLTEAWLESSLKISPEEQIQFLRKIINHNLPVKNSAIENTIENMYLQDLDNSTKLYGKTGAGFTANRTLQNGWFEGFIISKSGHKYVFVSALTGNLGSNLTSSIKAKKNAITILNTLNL

[5] = target: T5, OXA-11 (Pseudomonas aeruginosa, UniProt Q06778); assay: as above; format: biochemical
T5 construct: made in house; host or cells: E. coli
T5 sequence (Q06778 21-266): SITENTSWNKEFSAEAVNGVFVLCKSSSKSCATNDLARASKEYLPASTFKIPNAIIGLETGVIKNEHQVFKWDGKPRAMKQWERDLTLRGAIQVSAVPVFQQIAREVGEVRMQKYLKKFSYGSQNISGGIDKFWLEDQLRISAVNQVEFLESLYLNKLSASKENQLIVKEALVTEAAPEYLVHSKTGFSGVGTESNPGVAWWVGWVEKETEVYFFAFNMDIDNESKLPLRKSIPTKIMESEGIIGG

[6] = target: T6, OXA-15 (Pseudomonas aeruginosa, UniProt Q51574); assay: as above; format: biochemical
T6 construct: made in house; host or cells: E. coli
T6 sequence (Q51574 22-275): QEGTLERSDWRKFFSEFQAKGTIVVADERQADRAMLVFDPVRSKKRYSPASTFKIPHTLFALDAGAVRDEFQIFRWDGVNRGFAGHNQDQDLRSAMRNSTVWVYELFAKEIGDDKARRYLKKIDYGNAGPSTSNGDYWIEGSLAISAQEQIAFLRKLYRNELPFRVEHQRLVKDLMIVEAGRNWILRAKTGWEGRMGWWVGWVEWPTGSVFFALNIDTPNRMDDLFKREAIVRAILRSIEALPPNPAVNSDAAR

[7] = target: T7, OXA-48 (Klebsiella pneumoniae, UniProt Q6XEC0); assay: as above; format: biochemical
T7 construct: made in house; host or cells: E. coli
T7 sequence (Q6XEC0 23-265 limits assumed): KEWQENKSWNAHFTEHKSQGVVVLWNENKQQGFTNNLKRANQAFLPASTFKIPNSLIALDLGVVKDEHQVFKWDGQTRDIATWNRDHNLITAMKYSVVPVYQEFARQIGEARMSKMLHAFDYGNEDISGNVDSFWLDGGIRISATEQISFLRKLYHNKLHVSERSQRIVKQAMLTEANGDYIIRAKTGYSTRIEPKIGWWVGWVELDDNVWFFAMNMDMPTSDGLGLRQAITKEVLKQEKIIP

[8] = system: K. pneumoniae UFR68 (TEM-1, SHV-11, CTX-M-15, KPC-3); assay: microbe, parasite or virus in culture; format: cell-based
[9] = system: E. cloacae UFR70 (TEM-1, CTX-M-15, CMY-2, OXA-1, Porin loss); assay: MIC of compounds and synergy with ceftazidime (broth microdilution); format: cell-based
Procedure: (§1) Briefly, compounds alone according to the invention were prepared in DMSO and spotted (2 μL each) on sterile polystyrene plates (Corning, 3788). […] Microplates were incubated for 16-20 h at 35° C. in ambient air. The MIC of the compounds was defined as the lowest concentration of said compounds that prevented bacterial growth as read by visual inspection.

[10] = system: P. aeruginosa UFR90 (Derepressed ampC, OprD-); assay: as above; format: cell-based; details: for MIC, combination of CAZ and compounds of the invention: MIC of ceftazidime with compound fixed at 4 μg/mL, strain UFR90 (P. aeruginosa); for MIC: Pseudomonas aeruginosa, 18 h, read-out: MIC compounds of the invention alone
Procedure: as §1

[11] = system: P. aeruginosa UFR92 (Derepressed ampC, OprD-); assay: as above; format: cell-based; details: for MIC, combination of CAZ and compounds of the invention: MIC of ceftazidime with compound fixed at 4 μg/mL, strain UFR92 (P. aeruginosa); for MIC: Pseudomonas aeruginosa, 18 h, read-out: MIC compounds of the invention alone
Procedure: as §1

[12] = system: P. aeruginosa UFR93 (Derepressed ampC, OprD-, MexAB+, MexXY+); assay: as above; format: cell-based; details: for MIC, combination of CAZ and compounds of the invention: MIC of ceftazidime with compound fixed at 4 μg/mL, strain UFR93 (P. aeruginosa); for MIC: Pseudomonas aeruginosa, 18 h, read-out: MIC compounds of the invention alone
Procedure: as §1

[13] = system: E. cloacae UFR85 (TEM-1, CTX-M-15, derepressed ampC); assay: microbe, parasite or virus in culture; format: cell-based
Procedure: […] […] Microplates were incubated for 16-20 h at 35° C. in ambient air. The MIC of the compounds was defined as the lowest concentration of said compounds that prevented bacterial growth as read by visual inspection.

[14] = system: K. oxytoca UFR21 (TEM-1, CTX-M-15, OXA-48); assay: microbe, parasite or virus in culture; format: cell-based
[15] = system: K. pneumoniae 200047 (TEM-1, SHV-32, CTX-M-15, OXA-1); assay: microbe, parasite or virus in culture; format: cell-based
[16] = system: E. cloacae 260508 (TEM-1, CTX-M-15); assay: microbe, parasite or virus in culture; format: cell-based
Procedure: as §1

[17] = system: E. coli 190317 (TEM-1, SHV-12, CTX-M-15, OXA-1); assay: microbe, parasite or virus in culture; format: cell-based; details: for MIC: Escherichia coli, 18 h, read-out: MIC compounds of the invention alone; for MIC, combination of CAZ and compounds of the invention: MIC of ceftazidime with compound fixed at 4 μg/mL, strain 190317 (E. coli)
Procedure: as §1

[18] = system: K. pneumoniae 160143 (TEM-1, SHV-1, CTX-M-15, KPC-2, OXA-1); assay: microbe, parasite or virus in culture; format: cell-based
Procedure: as §1

[19] = target: T8, TEM-1 (Escherichia coli, UniProt P62593); assay: β-lactamase inhibitory activity, determination of IC50 (nitrocefin hydrolysis); format: biochemical; details: class (A), 30 min pre-incubation
T8 construct: made in house; host or cells: E. coli
T8 sequence (P62593 24-286 limits assumed): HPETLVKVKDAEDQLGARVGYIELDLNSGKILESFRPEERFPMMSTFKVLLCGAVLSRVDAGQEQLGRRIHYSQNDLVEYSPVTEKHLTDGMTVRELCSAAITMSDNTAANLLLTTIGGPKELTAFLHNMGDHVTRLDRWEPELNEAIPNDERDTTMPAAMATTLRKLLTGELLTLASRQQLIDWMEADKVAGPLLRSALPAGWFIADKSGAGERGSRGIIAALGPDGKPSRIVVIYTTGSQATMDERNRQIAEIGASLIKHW

[20] = system: E. cloacae P99 (Derepressed ampC); assay: MIC of compounds and synergy with ceftazidime (broth microdilution); format: cell-based
Procedure: as §1

[21] = system: E. coli 131119 (TEM-1, OXA-48); assay: as above; format: cell-based; details: Escherichia coli, 18 h, read-out: MIC compounds of the invention alone
Procedure: as §1

[22] = system: E. coli RGN238 (OXA-1); assay: as above; format: cell-based; details: Escherichia coli, 18 h, read-out: MIC compounds of the invention alone
Procedure: as §1

[23] = system: K. pneumoniae 6299 (TEM-1, SHV-11, OXA-163); assay: as above; format: cell-based
Procedure: as §1

[24] = system: K. pneumoniae BAA-1898 (TEM-1, SHV-11, SHV-12, KPC-2); assay: as above; format: cell-based
Procedure: as §1

[25] = system: P. aeruginosa CIP105250 (OXA-15); assay: as above; format: cell-based
Procedure: as §1

[26] = system: P. aeruginosa CIP107051 (TEM-24); assay: as above; format: cell-based
Procedure: as §1

[27] = system: P. aeruginosa UFR35 (OXA-23); assay: as above; format: cell-based
Procedure: as §1

[28] = system: P. aeruginosa UFR47 (VIM-1); assay: as above; format: cell-based
Procedure: as §1

[29] = system: P. aeruginosa UFR48 (VIM-2); assay: as above; format: cell-based
Procedure: as §1

[30] = system: P. aeruginosa UFR59 (IMP-29); assay: as above; format: cell-based
Procedure: as §1

[31] = target: AmpC (P99) (Enterobacter cloacae, UniProt P05364); assay: biochemical
Sequence of AmpC (P99) (P05364 21-381): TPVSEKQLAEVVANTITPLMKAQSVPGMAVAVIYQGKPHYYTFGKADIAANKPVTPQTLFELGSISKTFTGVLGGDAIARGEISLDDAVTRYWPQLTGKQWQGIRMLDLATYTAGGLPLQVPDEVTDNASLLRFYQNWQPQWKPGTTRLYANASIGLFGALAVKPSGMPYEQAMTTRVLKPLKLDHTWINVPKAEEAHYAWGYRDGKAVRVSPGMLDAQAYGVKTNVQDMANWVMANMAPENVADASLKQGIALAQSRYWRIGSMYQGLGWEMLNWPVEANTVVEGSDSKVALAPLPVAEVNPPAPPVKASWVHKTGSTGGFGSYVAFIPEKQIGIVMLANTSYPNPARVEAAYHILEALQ

[32] = target: AmpC (PAE) (Pseudomonas aeruginosa, UniProt P24735); assay: biochemical
Sequence of AmpC (PAE) (P24735 27-397): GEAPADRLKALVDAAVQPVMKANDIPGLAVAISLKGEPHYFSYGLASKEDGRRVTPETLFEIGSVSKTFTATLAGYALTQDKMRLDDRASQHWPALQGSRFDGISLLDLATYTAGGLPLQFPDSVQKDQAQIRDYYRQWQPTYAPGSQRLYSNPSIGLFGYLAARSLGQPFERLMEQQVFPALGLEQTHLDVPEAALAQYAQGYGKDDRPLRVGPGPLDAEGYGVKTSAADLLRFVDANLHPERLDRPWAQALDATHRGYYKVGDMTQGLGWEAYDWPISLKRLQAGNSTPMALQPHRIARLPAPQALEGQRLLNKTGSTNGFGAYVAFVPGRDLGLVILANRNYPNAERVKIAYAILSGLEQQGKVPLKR

[33] = Klebsiella pneumoniae, 18 h, read-out: MIC compounds of the invention alone
[34] = Enterobacter cloacae, 18 h, read-out: MIC compounds of the invention alone
[35] = Pseudomonas aeruginosa, 18 h, read-out: MIC compounds of the invention alone

T1 sequence (P0AD64 22-286): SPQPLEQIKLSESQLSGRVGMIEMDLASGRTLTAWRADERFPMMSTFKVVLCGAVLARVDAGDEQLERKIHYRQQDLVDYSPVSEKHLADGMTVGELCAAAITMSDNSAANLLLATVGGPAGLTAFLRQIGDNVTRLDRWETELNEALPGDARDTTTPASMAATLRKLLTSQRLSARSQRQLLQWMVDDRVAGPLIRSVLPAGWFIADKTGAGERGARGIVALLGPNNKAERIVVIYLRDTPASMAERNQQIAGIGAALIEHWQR

NC[C@H]1C=C(c2cnco2)[C@@H]2CN1C(=O)N2OS(=O)(=O)[O-].O=C(O)C(F)(F)F.[Na+] (relative stereo) [Example 1, Sodium and 2,2,2-trifluoroacetate [trans-2-(azaniumylmethyl)-4-oxazol-5-yl-7-oxo-1,6-diazabicyclo[3.2.1]oct-3-en-6-yl] sulfate]
IC50 [1]: 1.3 nM
IC50 [2]: 5.4 nM
IC50 [3]: 7.8 nM
IC50 [4]: 80 nM
IC50 [5]: 4.1 nM
IC50 [6]: 0.65 nM
IC50 [7]: 0.51 nM
MIC [8, 33]: > 32 µg/mL
MIC, combination of CAZ and compounds of the invention ([8]; MIC of ceftazidime with compound fixed at 4 μg/mL, strain UFR68 (K. pneumoniae)): 1 µg/mL
MIC [9, 34]: 16 µg/mL
MIC, combination of CAZ and compounds of the invention ([9]; MIC of ceftazidime with compound fixed at 4 μg/mL, strain UFR70 (E. cloacae)): 1 µg/mL
MIC, combination of CAZ and compounds of the invention [10]: <0.25 µg/mL
MIC [10]: 0.5 µg/mL
MIC, combination of CAZ and compounds of the invention [11]: <0.25 µg/mL
MIC [11]: 2 µg/mL
MIC, combination of CAZ and compounds of the invention [12]: <0.25 µg/mL
MIC [12]: 8 µg/mL
MIC [13, 34]: > 32 µg/mL
MIC, combination of CAZ and compounds of the invention ([13]; MIC of ceftazidime with compound fixed at 4 μg/mL, strain UFR85 (E. cloacae)): 2 µg/mL
MIC ([14]; Klebsiella oxytoca, 18 h, read-out: MIC compounds of the invention alone): > 32 µg/mL
MIC, combination of CAZ and compounds of the invention ([14]; MIC of ceftazidime with compound fixed at 4 μg/mL, strain UFR21 (K. oxytoca)): 0.5 µg/mL
MIC [15, 33]: > 32 µg/mL
MIC, combination of CAZ and compounds of the invention ([15]; MIC of ceftazidime with compound fixed at 4 μg/mL, strain 200047 (K. pneumoniae)): 0.5 µg/mL
MIC ([16]; Enterobacter cloacae, read-out: MIC compounds of the invention alone): 0.063 µg/mL
MIC, combination of CAZ and compounds of the invention ([16]; MIC of ceftazidime with compound fixed at 4 μg/mL, strain 260508 (E. cloacae)): ≤0.125 µg/mL
MIC [17]: 0.031 µg/mL
MIC, combination of CAZ and compounds of the invention [17]: <0.25 µg/mL
MIC [18, 33]: > 32 µg/mL
MIC, combination of CAZ and compounds of the invention ([18]; MIC of ceftazidime with compound fixed at 4 μg/mL, strain 160143 (K. pneumoniae)): 1 µg/mL

NC[C@@H]1C=C(c2cnco2)[C@@H]2CN1C(=O)N2OC(F)(F)C(=O)O (relative stereo) [Example 3, lithium and 2,2,2-trifluoroacetate [trans-2-(azaniumylmethyl)-4-oxazol-5-yl-7-oxo-1,6-diazabicyclo[3.2.1]oct-3-en-6-yl]oxy]-2,2-difluoro-acetate]
IC50 [19]: 3 nM
IC50 [1]: 4.6 nM
IC50 [2]: 2 nM
IC50 [3]: 33 nM
IC50 [4]: 17 nM
IC50 [5]: 48 nM
IC50 [6]: 1.6 nM
IC50 [7]: 5.7 nM
MIC [20, 34]: 0.063 µg/mL
MIC, combination of CAZ and compounds of the invention ([20]; MIC of ceftazidime with compound fixed at 4 μg/mL, strain P99 (E. cloacae)): <0.125 µg/mL
MIC [21]: 0.5 µg/mL
MIC [22]: > 32 µg/mL
MIC [23, 33]: > 32 µg/mL
MIC, combination of CAZ and compounds of the invention ([23]; MIC of ceftazidime with compound fixed at 4 μg/mL, strain 6299 (K. pneumoniae)): 1 µg/mL
MIC ([24]; Klebsiella pneumoniae, BAA1898, read-out: MIC compounds of the invention alone): > 32 µg/mL
MIC, combination of CAZ and compounds of the invention ([24]; MIC of ceftazidime with compound fixed at 4 μg/mL, strain BAA-1898 (K. pneumoniae)): 1 µg/mL
MIC, combination of CAZ and compounds of the invention ([25]; MIC of ceftazidime with compound fixed at 4 μg/mL, strain CIP105250 (P. aeruginosa)): 8 µg/mL
MIC ([25]; Pseudomonas aeruginosa, CIP105250, 18 h, read-out: MIC compounds of the invention alone): > 32 µg/mL
MIC, combination of CAZ and compounds of the invention ([26]; MIC of ceftazidime with compound fixed at 4 μg/mL, strain CIP107051 (P. aeruginosa)): ≤0.25 µg/mL
MIC ([26]; Pseudomonas aeruginosa, CIP107051, 18 h, read-out: MIC compounds of the invention alone): 16 µg/mL
MIC, combination of CAZ and compounds of the invention ([27]; MIC of ceftazidime with compound fixed at 4 μg/mL, strain UFR35 (P. aeruginosa)): <0.25 µg/mL
MIC [27, 35]: 2 µg/mL
MIC, combination of CAZ and compounds of the invention ([28]; MIC of ceftazidime with compound fixed at 4 μg/mL, strain UFR47 (P. aeruginosa)): <0.25 µg/mL
MIC [28, 35]: 4 µg/mL
MIC, combination of CAZ and compounds of the invention ([29]; MIC of ceftazidime with compound fixed at 4 μg/mL, strain UFR48 (P. aeruginosa)): 16 µg/mL
MIC [29, 35]: 8 µg/mL
MIC, combination of CAZ and compounds of the invention ([30]; MIC of ceftazidime with compound fixed at 4 μg/mL, strain UFR59 (P. aeruginosa)): 2 µg/mL
MIC [30, 35]: 16 µg/mL
MIC, combination of CAZ and compounds of the invention [10]: <0.25 µg/mL
MIC [10]: 1 µg/mL
MIC, combination of CAZ and compounds of the invention [11]: ≤0.25 µg/mL
MIC [11]: 8 µg/mL
MIC, combination of CAZ and compounds of the invention [12]: 0.5 µg/mL
MIC [12]: 16 µg/mL
MIC [17]: 0.25 µg/mL (≈ 0.757 µM)
MIC, combination of CAZ and compounds of the invention [17]: <0.125 µg/mL
IC50 [31]: 7.4 nM
IC50 [32]: 220 nM
